# Literature values as cited in patent publication US6403361B1, “Enzymatic method for modification of recombinant polypeptides” (Restoragen, Inc., priority 1993, dated 2002).
# Read-outs that look alike come from different tables or passages of the source.
# Tests used:
# Adenosine deaminase = target: T1, Adenosine deaminase (Homo sapiens, UniProt P00813); conditions: E is times ten to the negative exponent
# T1 sequence (P00813 1-363): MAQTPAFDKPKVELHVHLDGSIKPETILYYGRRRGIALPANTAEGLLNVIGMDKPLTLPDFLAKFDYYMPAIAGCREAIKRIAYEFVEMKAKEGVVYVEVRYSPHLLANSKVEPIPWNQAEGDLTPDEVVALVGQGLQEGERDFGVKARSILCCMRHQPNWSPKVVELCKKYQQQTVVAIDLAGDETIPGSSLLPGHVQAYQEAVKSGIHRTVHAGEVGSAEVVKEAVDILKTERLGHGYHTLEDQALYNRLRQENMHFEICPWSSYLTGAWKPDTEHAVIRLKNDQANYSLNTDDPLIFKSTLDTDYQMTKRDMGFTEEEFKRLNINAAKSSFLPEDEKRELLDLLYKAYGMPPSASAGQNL
# Cholesterol esterase = target: T2, Cholesterol esterase (Homo sapiens, UniProt P19835); conditions: Ref. 8 (Sutton et al., BBRC, 134, 386-392 (1986)); E is times ten to the negative exponent
# T2 sequence (P19835 21-753): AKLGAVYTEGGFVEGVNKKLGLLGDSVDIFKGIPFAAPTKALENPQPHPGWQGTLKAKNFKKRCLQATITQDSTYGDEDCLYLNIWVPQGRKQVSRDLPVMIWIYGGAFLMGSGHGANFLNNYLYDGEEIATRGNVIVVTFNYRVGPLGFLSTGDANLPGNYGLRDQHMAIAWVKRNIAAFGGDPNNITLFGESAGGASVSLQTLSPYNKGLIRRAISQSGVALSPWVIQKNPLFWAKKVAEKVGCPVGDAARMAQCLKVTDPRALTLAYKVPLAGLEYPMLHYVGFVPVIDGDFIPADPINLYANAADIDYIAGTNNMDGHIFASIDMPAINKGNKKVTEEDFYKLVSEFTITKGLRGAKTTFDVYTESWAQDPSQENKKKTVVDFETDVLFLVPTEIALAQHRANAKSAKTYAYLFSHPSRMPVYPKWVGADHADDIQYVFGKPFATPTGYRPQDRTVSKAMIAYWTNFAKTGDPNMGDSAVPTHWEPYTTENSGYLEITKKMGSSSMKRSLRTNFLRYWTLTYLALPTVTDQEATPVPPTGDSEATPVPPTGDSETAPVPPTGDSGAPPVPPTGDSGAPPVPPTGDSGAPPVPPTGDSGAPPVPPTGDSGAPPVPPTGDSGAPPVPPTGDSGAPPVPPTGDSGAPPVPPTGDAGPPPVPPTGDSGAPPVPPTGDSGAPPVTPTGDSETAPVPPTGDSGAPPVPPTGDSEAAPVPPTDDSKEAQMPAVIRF
compound,measurement,setting,value
OC[C@H]1O[C@@H](n2cnc3c2N=CNC[C@H]3O)[C@H](O)[C@@H]1O [Coformycin],Kd,"Adenosine deaminase; Ref. 1 (Cha et al., Biochemical Pharm., 24, 2187-2197)",< 0.12 nM
CCCCCCC(C(C)O)n1cnc2c(N)ncnc21 (stereo not drawn) [erythro-9-(2-hydroxy-3 nonyl) adenine],Kd,"Adenosine deaminase; Ref. 2 (Agarwal et al., Biochemical Pharm., 26, 354-367 (1977))",1.6 nM
Borinic acid,Kd,Cholesterol esterase,0.1 nM
